Measurements as given in US4166861A, “Pharmacologically active polyphenolic substances” (Inverni della Beffa S.p.A., priority 1976, dated 1979).
Read-outs that look alike come from different tables or passages of the source.

Legend:
[1] = Choleretic activity in the rat, intraperitoneal administration (bile volume and dry residue); type: in vivo, Sprague Dawley rats; details: for increase of the dry residue of the bile in comparison with the basal values / increase of the volume of the bile in comparison with the basal values / Bile Volume 3 Hours after Treatment / Dry Residue 3 Hours after Treatment: 100 mg/kg i.p.; for increase of the dry residue of the bile in comparison with the basal values / increase of the volume of the bile in comparison with the basal values: measured from 1 hour to 4 hours after administration; for Bile Volume 3 Hours after Treatment / Dry Residue 3 Hours after Treatment: awake rat; for choleretic action (in words): Table 2, 100 mg/kg i.p., bile volume and dry residue three hours after treatment
Protocol: (§1) The choleretic activity was determined in accordance with the technique described by R. Lambert in "Surgery of the Digestive System in the Rat" 1965. Sprague Dawley rats of mean weight of 230 g. were used. The products were injected intraperitoneally at the dosage of 100 mg/kg., the volume of the bile and the corresponding dry residue being measured then from 1 hour to 4 hours after administration. […] These increases are significant.
2. Choleretic Activity--Intra-Peritoneal Administration
The choleretic activities of catechin and catechin pentacetyl ferulate were determined in the manner described in paragraph A above.

[2] = Choleretic activity in the rat, oral administration (bile volume and dry residue); type: in vivo, Sprague Dawley rats; details: 200 mg/kg per os; for Bile Volume 2 Hours after Treatment / Dry Residue 2 Hours after Treatment / Bile Volume 3 Hours after Treatment / Dry Residue 3 Hours after Treatment: awake rat
Protocol: as §1
1. Choleretic Activity--Oral Administration
The choleretic activities of catechin and epicatechin were determined in the manner described in paragraph A above except that the substances under test were administered per os at the rate of 200 mg./kg.

[3] = Olive oil-induced hyperlipaemia in the rat (plasma triglycerides); type: in vivo, Sprague Dawley rats; details: for diminution of the concentration of triglycerides in the plasma in comparison with the controls: 100 mg/kg orally, two treatments, 2 h before and 2 h after olive oil, significant; for Triglycerides: 100 mg/kg per os, controls (water) 171.5±18.6; for hypolipaemic effect (in words): Table 3, 100 mg/kg per os
Protocol: The hyperlipaemic activity was determined in Sprague Dawley rats of mean weight of 160 g., in which hyperlipaemia was induced by means of administration of 20 ml./kg. of olive oil orally in animals which had been fasting for 16 hours. Two treatments were effected with the products under examination (upon groups of 18 animals), the first two hours before the olive oil, the second two hours afterwards. The doses were administered orally and were equal to 100 mg./kg.
3. Hypolipaemic Effect--Effect on Olive Oil-Induced Hyperlipaemia
The hypolipaemic activity of catechin and epicatechin was determined in the manner described in paragraph B1 above.

Toxicity (LD50) = type: in vivo; details: for LD50: in vivo
[4] = Lipidic metabolism in the normally fed rat (plasma free fatty acids); type: in vivo, Sprague Dawley rats; details: single dose 100 mg/kg i.p., after two hours; normolipaemic rats; significant
Protocol: The tests were conducted on Sprague Dawley rats of mean weight of 200 g. which were normolipaemic and to which the products had been administered intraperitoneally in a single dose of 100 mg./kg. After two hours the animals were slaughtered and the free fatty acids in the plasma were measured.

[5] = Triton hyperlipaemia in the rat (plasma cholesterol and triglycerides); type: in vivo, Sprague Dawley rats; details: 100 mg/kg i.p. (50 mg/kg immediately after Triton, 50 mg/kg after 4 hours); significant
Protocol: The products under examination were injected intraperitoneally at the dosage of 100 mg./kg. of which 50 mg./kg. immediately after the Triton and 50 mg./kg. after 4 hours. After a further 4 hours the animals were slaughtered and the cholesterol and triglycerides in the plasma were measured.

[6] = epicatechin compared with catechin

| Compound | increase of the dry residue of the bile in comparison with the basal values [1] [%] | increase of the volume of the bile in comparison with the basal values [1] [%] | Bile Volume 2 Hours after Treatment [2] [mL] | Dry Residue 2 Hours after Treatment [2] [mg] | Bile Volume 3 Hours after Treatment [2] [mL] | Dry Residue 3 Hours after Treatment [2] [mg] | diminution of the concentration of triglycerides in the plasma in comparison with the controls [3] [%] | Triglycerides [3] [mg/100 ml] | hypolipaemic effect (in words) [3] | Bile Volume 3 Hours after Treatment [1] [mL] | Dry Residue 3 Hours after Treatment [1] [mg] | choleretic action (in words) [1] | diminution of the concentration of free fatty acids in the plasma in comparison with the controls [4] [%] | diminution of the concentration of cholesterol in the plasma in comparison with the controls [5] [%] | diminution of the concentration of triglycerides in the plasma in comparison with the controls [5] [%] | also measured |
| --- | --- | --- | --- | --- | --- | --- | --- | --- | --- | --- | --- | --- | --- | --- | --- | --- |
| Oc1cc(O)c2c(c1)O[C@H](c1ccc(O)c(O)c1)[C@H](O)C2 [Epicatechin, epicatechin] | 35 | 38 | 1.02 ± 0.07 | 18.1 ± 2.0 | 0.89 ± 0.09 | 16.5 ± 2.13 | 42 | 98.6±12.0 | marked hypolipaemic effect | – | – | – | – | – | – | choleretic activity (in words) [2, 6]: markedly higher choleretic activity than catechin; duration of choleretic effect (in words) [2, 6]: the choleretic effect is of longer duration |
| Oc1cc(O)c2c(c1)O[C@H](c1ccc(O)c(O)c1)[C@@H](O)C2 [Catechin, catechin, reference compound] | – | – | 0.84 ± 0.02 | 18.2 ± 0.37 | 0.81 ± 0.03 | 16.6 ± 0.81 | – | 120.7±17.6 | no statistically significant hypolipaemic effect | 0.62 ± 0.08 | 10.0 ± 4.20 | no statistically significant choleretic effect | – | – | – | LD50 (Toxicity (LD50); ip, read-out: LD50 i.p.): > 1000 mg/kg; LD50 (Toxicity (LD50); po, per os, read-out: LD50 per os): > 2000 mg/kg |
| CC1(C)Oc2ccc([C@H]3Oc4cc(O)cc(O)c4C[C@@H]3O)cc2O1 [catechin acetonide] | – | – | – | – | – | – | – | – | – | – | – | – | 25.8 | – | – | – |
| COc1cc(C=CC(=O)Oc2cc(OC(=O)C=Cc3ccc(OC(C)=O)c(OC)c3)c3c(c2)O[C@H](c2ccc(OC(=O)C=Cc4ccc(OC(C)=O)c(OC)c4)c(OC(=O)C=Cc4ccc(OC(C)=O)c(OC)c4)c2)[C@@H](OC(=O)C=Cc2ccc(OC(C)=O)c(OC)c2)C3)ccc1OC(C)=O [Catechin pentacetylferulate, catechin peracetylferulate] | 36 | 64 | – | – | – | – | – | – | – | 0.88 ± 0.05 | 15.6 ± 0.60 | marked choleretic action | – | – | – | LD50 i.p. (Toxicity (LD50); i.p.): > 1000 mg/kg |
| O=C(Oc1cc(OC(=O)c2cccnc2)c2c(c1)O[C@H](c1ccc(OC(=O)c3cccnc3)c(OC(=O)c3cccnc3)c1)[C@@H](OC(=O)c1cccnc1)C2)c1cccnc1 [pernicotinylcatechin] | – | – | – | – | – | – | 27 | – | – | – | – | – | 13.1 | 21.1 | 28.7 | – |
| CC(=O)Oc1cc(OC(C)=O)c2c(c1)O[C@H](c1ccc(OC(C)=O)c(OC(C)=O)c1)[C@@H](OC(C)=O)C2 [Example 4, Catechin pentaacetate] | – | – | – | – | – | – | – | – | – | – | – | – | – | 16.3 | 23.1 | – |
